Source: patent publication US20080280837A1, “Biologically Active Compounds with Anti-Angiogenic Properties” (priority 2004, published 2008)

Target: T1, Human SST5 somatostatin receptor (SSTR5) (Homo sapiens, UniProt P35346)
T1 construct: expressed in transfected cells; host or cells: HEK-293 EBNA
Assay: Filter plate assay for SST5 receptor, displacement of [125I]SST-14
Assay type: binding
In short: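 HEK-293 EBNA membranes expressing human SST5 (5.5 μg) incubated 60 min at 25 °C with 4 nM [125I]SST-14 and compound in pH 7.5 Tris/EGTA/MgCl2/sucrose buffer. Bound radioactivity collected on PEI-coated glass fiber filters and counted; triplicate 1:5 dilution series from 125 μM, non-specific binding with excess cold ligand.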

T1 sequence (P35346 whole entry): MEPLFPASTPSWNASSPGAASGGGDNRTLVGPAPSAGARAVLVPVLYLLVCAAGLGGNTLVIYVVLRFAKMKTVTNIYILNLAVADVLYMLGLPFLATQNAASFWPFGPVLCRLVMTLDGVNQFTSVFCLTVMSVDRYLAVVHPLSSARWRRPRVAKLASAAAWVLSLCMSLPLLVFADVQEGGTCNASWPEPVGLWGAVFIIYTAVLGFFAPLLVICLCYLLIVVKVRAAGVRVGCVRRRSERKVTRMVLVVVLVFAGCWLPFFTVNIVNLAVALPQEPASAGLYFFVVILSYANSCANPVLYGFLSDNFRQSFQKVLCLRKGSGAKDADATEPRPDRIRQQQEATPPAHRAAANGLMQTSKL

Row | SSTR5 Inhib 0.5 uM % (inhibition of binding of SST-14 to SSTR5) | SSTR5 Inhib 10 uM % (inhibition of binding of SST-14 to SSTR5) | Structure (SMILES)
1 | 44% | 83% | CSC1O[C@H](COCc2ccccc2)[C@@H](O)[C@@H](OCc2ccc3ccccc3c2)[C@H]1NC(=O)CCN (some centres unmarked) [Compound 109]
2 | 45% | 83% | COC[C@H]1OC(OCc2ccccc2)[C@H](NC(=O)CCCN)[C@@H](OCc2ccc(Cl)cc2)[C@@H]1O (some centres unmarked) [Compound 110]
3 | 36% | 83% | CSC1O[C@H](COCc2ccc(Cl)cc2)[C@@H](O)[C@@H](OCc2ccc(-c3ccccc3)cc2)[C@H]1NC(=O)CNC(=N)N (some centres unmarked) [Compound 111]
4 | 58% | 83% | COC[C@H]1OC(OCc2ccccc2)[C@H](NC(=O)CCNC(=N)N)[C@H](OCc2ccccc2)[C@@H]1O (some centres unmarked) [Compound 112]
5 | 50% | 83% | COC[C@H]1OC(OCc2ccc(Cl)cc2)[C@H](NC(=O)CCCN)[C@@H](OCc2cccc(O)c2)[C@@H]1O (some centres unmarked) [Compound 113]
6 | 47% | 82% | CSC1O[C@H](COCc2ccc3ccccc3c2)[C@@H](O)[C@@H](OCc2ccc3ccccc3c2)[C@H]1NC(=O)CCNC(=N)N (some centres unmarked) [Compound 114]
7 | 50% | 82% | COC1C(O)C(COCc2ccc3ccccc3c2)OC(OCc2ccc3ccccc3c2)C1NC(=O)CCNC(=N)N (centres unmarked) [Compound 115]
8 | 42% | 82% | CSC1O[C@H](COCc2ccc3ccccc3c2)[C@@H](O)[C@@H](OCc2ccc(Cl)cc2)[C@H]1NC(=O)CNC(=N)N (some centres unmarked) [Compound 116]
9 | 46% | 82% | COC[C@H]1OC(OCc2ccc(Cl)cc2)[C@H](NC(=O)CCCN)[C@H](OCc2ccccc2)[C@@H]1O (some centres unmarked) [Compound 117]
10 | 37% | 81% | CSC1O[C@H](COCc2ccccc2)[C@@H](O)[C@@H](OCc2ccc(Cl)cc2)[C@H]1NC(=O)CCNC(=N)N (some centres unmarked) [Compound 118]
11 | 37% | 81% | COC[C@H]1OC(OCc2ccccc2)[C@H](NC(=O)CNC(=N)N)[C@H](OCc2ccc(-c3ccccc3)cc2)[C@@H]1O (some centres unmarked) [Compound 119]
12 | 46% | 81% | COC[C@H]1OC(OCc2ccc(-c3ccccc3)cc2)[C@H](NC(=O)CCCNC(=N)N)[C@@H](OCc2ccc(Cl)cc2)[C@@H]1O (some centres unmarked) [Compound 120]
13 | 32% | 81% | CO[C@H]1[C@H](O)[C@@H](COCc2ccc3ccccc3c2)OC(OCc2ccc(Cl)cc2)[C@@H]1NC(=O)CCCN (some centres unmarked) [Compound 121]
14 | 39% | 81% | CO[C@H]1[C@H](O)[C@@H](COCc2ccc(Cl)cc2)OC(OCc2ccc(Cl)cc2)[C@@H]1NC(=O)CCCN (some centres unmarked) [Compound 122]
15 | 40% | 81% | COC[C@H]1OC(OCc2ccc(Cl)cc2)[C@H](NC(=O)CCNC(=N)N)[C@@H](OCc2ccc(Cl)cc2)[C@@H]1O (some centres unmarked) [Compound 123]
16 | 50% | 80% | NCCC(=O)N[C@H]1CO[C@H](COCc2ccc(-c3ccccc3)cc2)[C@@H](O)[C@H]1OCc1ccc(Cl)cc1 [Compound 124]
17 | 34% | 80% | CSC1O[C@H](COCc2ccc(Cl)cc2)[C@@H](O)[C@@H](OCc2ccc3ccccc3c2)[C@H]1NC(=O)CCNC(=N)N (some centres unmarked) [Compound 125]
18 | 57% | 80% | CO[C@H]1[C@H](O)[C@@H](COCc2ccc3ccccc3c2)OC(OCc2ccc3ccccc3c2)[C@@H]1NC(=O)CNC(=N)N (some centres unmarked) [Compound 126]
19 | 48% | 80% | CSC1O[C@H](COCc2ccc(-c3ccccc3)cc2)[C@@H](O)[C@@H](OCc2ccc3ccccc3c2)[C@H]1NC(=O)CCCN (some centres unmarked) [Compound 127]

Row | SSTR5 Inhib 0.5 uM % (inhibition of binding of SST-14 to SSTR5) | SSTR5 Inhib 10 uM % (inhibition of binding of SST-14 to SSTR5) | Structure (SMILES)
20 | 28% | 80% | CSC1O[C@H](COCc2ccccc2)[C@@H](O)[C@@H](OCc2ccc3ccccc3c2)[C@H]1NC(=O)CCNC(=N)N (some centres unmarked) [Compound 128]
21 | 36% | 80% | COC[C@H]1OC(OCc2ccc(-c3ccccc3)cc2)[C@H](NC(=O)CNC(=N)N)[C@@H](OCc2ccc(-c3ccccc3)cc2)[C@@H]1O (some centres unmarked) [Compound 129]
22 | 40% | 80% | COC[C@H]1OC(OCc2ccc(-c3ccccc3)cc2)[C@H](NC(=O)CCCNC(=N)N)[C@@H](OCc2ccc(-c3ccccc3)cc2)[C@@H]1O (some centres unmarked) [Compound 130]
23 | 52% | 80% | CSC1O[C@H](COCc2ccc3ccccc3c2)[C@@H](O)[C@@H](OCc2ccc3ccccc3c2)[C@H]1NC(=O)CNC(=N)N (some centres unmarked) [Compound 131]
24 | 39% | 80% | COC[C@H]1OC(OCCc2ccccc2)[C@H](NC(=O)CCCNC(=N)N)[C@@H](OCc2ccc(-c3ccccc3)cc2)[C@@H]1O (some centres unmarked) [Compound 132]
25 | 24% | 80% | COC[C@H]1OC(OCc2ccc3ccccc3c2)[C@H](NC(=O)CNC(=N)N)[C@H](OCc2ccc(Cl)cc2)[C@@H]1O (some centres unmarked) [Compound 133]
26 | 55% | 79% | COC1C(O)C(COCc2ccc(Cl)cc2)OC(OCc2ccc3ccccc3c2)C1NC(=O)CCCNC(=N)N (centres unmarked) [Compound 134]
27 | 45% | 79% | COC[C@H]1OC(OCc2ccc3ccccc3c2)[C@H](NC(=O)CCCNC(=N)N)[C@@H](OCc2ccccc2)[C@@H]1O (some centres unmarked) [Compound 135]
28 | 26% | 79% | COC1C(O)C(COCc2ccc(-c3ccccc3)cc2)OC(OCc2ccc(-c3ccccc3)cc2)C1NC(=O)CCNC(=N)N (centres unmarked) [Compound 136]
29 | 43% | 79% | COC[C@H]1OC(OCc2ccc3ccccc3c2)[C@H](NC(=O)CNC(=N)N)[C@@H](OCc2ccc3ccccc3c2)[C@@H]1O (some centres unmarked) [Compound 137]
30 | 39% | 79% | COC[C@H]1OC(OCc2ccccc2)[C@H](NC(=O)CCCNC(=N)N)[C@H](OCc2ccc(Cl)cc2)[C@@H]1O (some centres unmarked) [Compound 138]
31 | 34% | 79% | CSC1O[C@H](COCc2ccc(-c3ccccc3)cc2)[C@@H](O)[C@@H](OCc2ccc3ccccc3c2)[C@H]1NC(=O)CNC(=N)N (some centres unmarked) [Compound 139]
32 | 38% | 78% | COC1C(O)C(COCc2ccc3ccccc3c2)OC(OCCc2ccccc2)C1NC(=O)CCCN (centres unmarked) [Compound 140]
33 | 36% | 78% | COC1C(O)C(COCc2ccc(Cl)cc2)OC(OCCc2ccccc2)C1NC(=O)CCCN (centres unmarked) [Compound 141]
34 | 44% | 78% | CSC1O[C@H](COCc2ccc(Cl)cc2)[C@@H](O)[C@@H](OCc2ccccc2)[C@H]1NC(=O)CCNC(=N)N (some centres unmarked) [Compound 142]
35 | 35% | 78% | CO[C@H]1[C@H](O)[C@@H](COCc2ccc(Cl)cc2)OC(OCc2ccc3ccccc3c2)[C@@H]1NC(=O)CCCN (some centres unmarked) [Compound 143]
36 | 45% | 78% | COC[C@H]1OC(OCc2ccccc2)[C@H](NC(=O)CCCN)[C@@H](OCc2cccc(O)c2)[C@@H]1O (some centres unmarked) [Compound 144]
37 | 45% | 78% | COC[C@H]1OC(OCCc2ccccc2)[C@H](NC(=O)CCCN)[C@@H](OCc2ccc(Cl)cc2)[C@@H]1O (some centres unmarked) [Compound 145]
